Data on 25 compounds can be found in patent US20120071506A1, “METHODS FOR TREATING CNS DISORDERS WITH BICYCLO-SUBSTITUTED 2-IMIDAZOLINE AND 2-IMIDAZOLES” (priority 2006, published 2012).

Where a name gives a salt, the structure may show the parent alone.

The Ki is a dissociation constant, usually derived from enzyme kinetics or from competition with a known ligand. One may read the melting point as the temperature of the solid-liquid transition. Usually Kd stands for a measure of binding affinity in units of concentration.

For one data set, the target named is T1, mouse TAAR1 (Mus musculus, UniProt Q923Y8).
T1 construct: expressed in transfected cells; host or cells: HEK293 cells (ATCC # CRL-1573), stably transfected with pIRESneo2 expression plasmid; membrane preparation
T1 sequence (Q923Y8 whole entry): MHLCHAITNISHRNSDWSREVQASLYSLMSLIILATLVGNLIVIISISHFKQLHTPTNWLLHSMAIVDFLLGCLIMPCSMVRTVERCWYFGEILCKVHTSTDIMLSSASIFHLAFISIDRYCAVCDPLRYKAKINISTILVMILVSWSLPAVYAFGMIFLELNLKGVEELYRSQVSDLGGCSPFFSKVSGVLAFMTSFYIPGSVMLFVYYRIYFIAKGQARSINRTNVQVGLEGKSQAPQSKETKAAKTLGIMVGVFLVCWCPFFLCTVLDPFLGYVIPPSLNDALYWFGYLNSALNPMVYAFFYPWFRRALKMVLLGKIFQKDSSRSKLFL
The data set is described as follows: Radioligand binding with [3H]-rac-2-(1,2,3,4-tetrahydro-1-naphthyl)-2-imidazoline on membranes of HEK293 cells stably expressing TAAR1. The note with it: for Ki: mouse TAAR1, competition with [3H]-rac-2-(1,2,3,4-tetrahydro-1-naphthyl)-2-imidazoline at 60 nM, 4° C., 30 min. How it is done:
For the construction of expression plasmids the coding sequences of human, rat and mouse TAAR 1 were amplified from genomic DNA essentially as described by Lindemann et al.. The Expand High Fidelity PCR System (Roche Diagnostics) was used with 1.5 mM Mg^2+ and purified PCR products were cloned into pCR2.1-TOPO cloning vector (Invitrogen) following the instructions of the manufacturer. PCR products were subcloned into the pIRESneo2 vector (BD Clontech, Palo Alto, Calif.), and expression vectors were sequence verified before introduction in cell lines.
HEK293 cells (ATCC # CRL-1573) were cultured essentially as described Lindemann et al. (2005). For the generation of stably transfected cell lines HEK293 cells were transfected with the pIRESneo2 expression plasmids containing the TAAR coding sequences (described above) with Lipofectamine 2000 (Invitrogen) according to the instructions of the manufacturer, and 24 hrs post transfection the culture medium was supplemented with 1 mg/ml G418 (Sigma, Buchs, Switzerland). After a culture period of about 10 d clones were isolated, expanded and tested for responsiveness to trace amines (all compounds purchased from Sigma) with the cAMP Biotrak Enzyme immunoassay (EIA) System (Amersham) following the non-acetylation EIA procedure provided by the manufacturer.
Cells at confluence were rinsed with ice-cold phosphate buffered saline without Ca^2+ and Mg^2+ containing 10 mM EDTA and pelleted by centrifugation at 1000 rpm for 5 min at 4° C. The pellet was then washed twice with ice-cold phosphate buffered saline and cell pellet was frozen immediately by immersion in liquid nitrogen and stored until use at −80° C. Cell pellet was then suspended in 20 ml HEPES-NaOH (20 mM), pH 7.4 containing 10 mM EDTA, and homogenized with a Polytron (PT 3000, Kinematica) at 10,000 rpm for 10 s. The homogenate was centrifuged at 48,000×g for 30 min at 4° C. and the pellet resuspended in 20 ml HEPES-NaOH (20 mM), pH 7.4 containing 0.1 mM EDTA (buffer A), and homogenized with a Polytron at 10,000 rpm for 10 s. The homogenate was then centrifuged at 48,000×g for 30 min at 4° C. and the pellet resuspended in 20 ml buffer A, and homogenized with a Polytron at 10,000 rpm for 10 s. Protein concentration was determined by the method of Pierce (Rockford, Ill.). The homogenate was then centrifuged at 48,000×g for 10 min at 4° C., resuspended in HEPES-NaOH (20 mM), pH 7.0 including MgCl2 (10 mM) and […] homogenized with a Polytron at 10,000 rpm for 10 s.
Binding assay was performed at 4° C. in a final volume of 1 ml, and with an incubation time of 30 min. The radioligand [^3H]-rac-2-(1,2,3,4-tetrahydro-1-naphthyl)-2-imidazoline was used at a concentration equal to the calculated Kd value of 60 nM to give a bound at around 0.1% of the total added radioligand concentration, and a specific binding which represented approximately 70-80% of the total binding. Non-specific binding was defined as the amount of [^3H]-rac-2-(1,2,3,4-tetrahydro-1-naphthyl)-2-imidazoline bound in the presence of the appropriate unlabelled ligand (10 μM). Competing ligands were tested in a wide range of concentrations (10 pM-30 μM). […] Each experiment was performed in duplicate. All incubations were terminated by rapid filtration through UniFilter-96 plates (Packard Instrument Company) and glass filter GF/C, pre-soaked for at least 2 h in polyethylenimine 0.3%, and using a Filtermate 96 Cell Harvester (Packard Instrument Company). The tubes and filters were then washed 3 times with 1 ml aliquots of cold buffer B. Filters were not dried and soaked in Ultima gold (45 μl/well, Packard Instrument Company) and bound radioactivity was counted by a TopCount Microplate Scintillation Counter (Packard Instrument Company).

At mouse TAAR1, `Fc1ccc2c(c1)OCCC2c1cnc[nH]1` (racemic) [Example 65, rac-5-(7-Fluoro-chroman-4-yl)-1H-imidazole or tautomer] had an inhibition constant (Ki) of 0.004 µM.

On to `Cc1cccc2c1C(c1cnc[nH]1)CCO2` (racemic) [Example 66, rac-5-(5-Methyl-chroman-4-yl)-1H-imidazole or tautomer], for which, at mouse TAAR1, the inhibitory constant (Ki) worked out at 0.037 µM.

On mouse TAAR1, `Fc1cccc2c1C(c1cnc[nH]1)CCO2` (racemic) [Example 67, rac-5-(5-Fluoro-chroman-4-yl)-1H-imidazole or tautomer] showed a Ki of 0.032 µM.

At mouse TAAR1, `c1ccc2c(c1)OCCC2c1ncc[nH]1` (racemic) [Example 12, rac-2-Chroman-4-yl-1H-imidazole] showed a Ki of 0.054 µM.

As for `Cc1cc(C)c2c(c1)C(c1ncc[nH]1)CCC2` (racemic) [Example 10, rac-2-(5,7-Dimethyl-1,2,3,4-tetrahydro-naphthalen-1-yl)-1H-imidazole], the melting point fell in the range of 161 to 163 °C. On mouse TAAR1, the Ki was 0.013 µM.

Compound `Brc1cccc2c1CCCC2C1=NCCN1` (racemic) [Example 1, rac-2-(5-Bromo-1,2,3,4-tetrahydro-naphthalen-1-yl)-4,5-dihydro-1H-imidazole] registered a Ki on mouse TAAR1 of 0.009 µM.

Regarding `Clc1cccc2c1OCC=C2c1cnc[nH]1` [Example 63, 5-(8-Chloro-2H-chromen-4-yl)-1H-imidazole or tautomer], on mouse TAAR1, the affinity, expressed as Ki, was 0.02 µM.

Regarding `Clc1ccc2c(c1)CCCC2C1=NCCN1` (racemic) [Example 18, rac-2-(6-chloro-1,2,3,4-tetrahydro-naphthalen-1-yl)-4,5-dihydro-1H-imidazole], the Ki at mouse TAAR1 worked out at 0.058 µM.

Take `c1ccc2c(c1)CCCC2C1=NCCN1` (racemic) [[^3H]-rac-2-(1,2,3,4-tetrahydro-1-naphthyl)-2-imidazoline, reference compound]: the Kd on mouse TAAR1 (radioligand used at a concentration equal to its calculated Kd, species of TAAR1 not given) is 60 nM.

As to `Clc1cc(Cl)c2c(c1)C(c1ncc[nH]1)CCO2` (racemic) [Example 36, rac-2-(6,8-Dichloro-chroman-4-yl)-1H-imidazole], on mouse TAAR1, the Ki is 0.053 µM. This lies in the double-digit nanomolar range.

Regarding `C1=C(c2cnc[nH]2)c2ccccc2CC1` [Example 55], the affinity at mouse TAAR1 corresponds to a Ki of 0.011 µM. Against the preceding compound, the Ki is about 4.8-fold lower.

For the compound `Fc1cc(Cl)cc2c1CCCC2C1=NCCN1` (racemic) [Example 3, rac-2-(7-Chloro-5-fluoro-1,2,3,4-tetrahydro-naphthalen-1-yl)-4,5-dihydro-1H-imidazole], affinity at mouse TAAR1 was put at a Ki of 0.054 µM. This Ki lies about 4.9-fold higher than the previous one.

At mouse TAAR1, `Clc1ccc2c(c1)C(c1cnc[nH]1)=CCO2` [Example 64, 5-(6-Chloro-2H-chromen-4-yl)-1H-imidazole or tautomer] returned an inhibitory constant (Ki) of 0.016 µM.

As to `c1ccc2c(c1)NCCC2c1ncc[nH]1` (racemic) [Example 41, rac-4-(1H-Imidazol-2-yl)-1,2,3,4-tetrahydro-quinoline], on mouse TAAR1, the affinity corresponds to a Ki of 0.061 µM.

In turn, `Fc1ccc2c(c1)C(c1cnc[nH]1)CCO2` (racemic) [Example 62, rac-5-(6-Fluoro-chroman-4-yl)-1H-imidazole or tautomer] registered a Ki at mouse TAAR1 of 0.004 µM. Against the preceding compound, the Ki is about 15-fold lower.

Compound `Cc1cc(C)c2c(c1)C(C1=NCCN1)CCC2` (racemic) [Example 2, rac-2-(5,7-Dimethyl-1,2,3,4-tetrahydro-naphthalen-1-yl)-4,5-dihydro-1H-imidazole] came in with an inhibition constant (Ki) on mouse TAAR1 of 0.011 µM.

At mouse TAAR1, `Clc1cccc2c1CCCC2C1=NCCN1` (racemic) [Example 19, rac-2-(5-chloro-1,2,3,4-tetrahydro-naphthalen-1-yl)-4,5-dihydro-1H-imidazole] showed a Ki of 0.013 µM.

Regarding `Brc1ccc2c(c1)C(C1=NCCN1)CCC2` (racemic), the melting point lay within 156 to 158 °C.

Take `COc1ccc2c(c1)CCCC2C1=NCCN1` (racemic) [Example 21, rac-2-(6-methoxy-1,2,3,4-tetrahydro-naphthalen-1-yl)-4,5-dihydro-1H-imidazole]: at mouse TAAR1, the Ki is 0.009 µM.

For `COc1ccc2c(c1)C(C1=NCCN1)CCC2` (racemic) [Example 20, rac-2-(7-Methoxy-1,2,3,4-tetrahydro-naphthalen-1-yl)-4,5-dihydro-1H-imidazole], on mouse TAAR1, the Ki worked out at 0.051 µM.

For `c1ccc2c(c1)OCCC2c1cnc[nH]1` (racemic) [Example 69, rac-5-Chroman-4-yl-1H-imidazole hydrochloride or tautomer], at mouse TAAR1, affinity was put at a Ki of 0.025 µM. This Ki is about 2-fold lower than that of the compound before.

In turn, `c1ccc2c(c1)OCCC2C1=NCCN1` (racemic) [Example 11, rac-2-Chroman-4-yl-4,5-dihydro-1H-imidazole] registered an inhibition constant (Ki) on mouse TAAR1 of 0.017 µM. The Ki values of the last two compounds are within 1.5-fold of each other.

With `COc1cccc2c1CCCC2C1=NCCN1` (racemic) [Example 22, rac-2-(5-methoxy-1,2,3,4-tetrahydro-naphthalen-1-yl)-4,5-dihydro-1H-imidazole], the Ki on mouse TAAR1 worked out at 0.025 µM. This Ki and that of the compound before are within 1.5-fold of each other.

As for `Cc1ccc2c(c1)OCCC2c1cnc[nH]1` (racemic) [Example 60, rac-5-(7-Methyl-chroman-4-yl)-1H-imidazole or tautomer], on mouse TAAR1, affinity was put at a Ki of 0.008 µM.

With `c1ccc2c(c1)CCCC2c1c[nH]cn1` (racemic) [Example 56, rac-4-(1,2,3,4-Tetrahydro-naphthalen-1-yl)-1H-imidazole], the inhibition constant Ki on mouse TAAR1 was found to be 0.006 µM.
